Experimental data reported in patent US20180153859A1, “METHODS OF TREATING OR PREVENTING COGNITIVE IMPAIRMENT USING INDANE ACETIC ACID DERIVATIVES BASED ON APOE4 GENOTYPE” (T3D Therapeutics, Inc., priority 2016, published 2018).

System: mild to moderate severity Alzheimer's patients
Test: ADAS-cog11 cognitive test in Alzheimer's patients stratified by ApoE4 genotype (trial NCT02560753)
Assay type: in vivo, human
Conditions: for cognitive improvement (ADAS-cog11 score change): D1-D14 and D1-D21
Experimental: Table 8c compares the average ADAS-cog11 score of all subjects, treated at all doses of T3D-959 in trial NCT02560753 (ClinicalTrials.gov), stratified by ApoE4 genotype and compares those scores with the average score of the group of subjects dosed at 3 mg, 10 mg, and 30 mg/d. ADAS-cog11 score change from day 1 (pre-dosing) to day 14 (D1-D14, end of treatment) and from day 1 to day 21 (D1-D21, followup) are shown.
Shown in this table are ADAS-cog11 cognitive test score changes from before dosing on day 1 of treatment (D1) to end of drug treatment on Day 14 (D14) and at follow-up 7 days post-dosing on Day 21 (D21). Drug treatment of mild to moderate severity Alzheimer's patients (MMSE=14-26) with T3D-959 was for 14 days q.d. at 3 mg, 10 mg, 30 mg or 90 mg (n=number of subjects evaluable at each dose). The ADAS-cog11 test score changes at each dose were stratified by ApoE4 genotype [E4=one or two ApoE4 alleles, Non-E4=no ApoE4 alleles].
ADAS-cog score change from day 1 to day 14 (D1-D14) and from day 1 to day 21 (D1-D21) are shown.
Adult human subjects who were tested for the presence of the ApoE4 gene (one or two E4 alleles) and had Alzheimer's disease were tested with the compound of the invention ((1S)-5-{5-ethyl-2-(4-methoxyphenyl)-1,3-oxazol-4-yl]ethoxy}-2,3-dihydro-1H-inden-1-yl) acetic acid, sodium salt. Subjects either lacked ApoE4 alleles (non-E4) or had one or two ApoE4 alleles (E4).

## CCc1oc(-c2ccc(OC)cc2)nc1CCOc1ccc2c(c1)CC[C@H]2CC(=O)[O-].[Na+]
AD subjects with one or two ApoE4 alleles
  most effective / required daily dose for cognitive improvement: ≥ 30 mg
ApoE4 non-carrier AD subjects
  most effective daily dose for cognitive improvement: 3 to 30 mg qd
ApoE4 non-carriers, 3 mg, 10 mg and 30 mg/d q.d. for 14 days
  cognitive improvement (ADAS-cog11 score change): showed improvement in cognition

## CCc1oc(-c2ccc(OC)cc2)nc1CCOc1ccc2c(c1)CC[C@H]2CC(=O)[O-].[Na+] [Example T3D-959]
ApoE4 carriers (one or two ApoE4 alleles), 30 mg and 90 mg/d q.d. for 14 days
  cognitive improvement (ADAS-cog11 score change): improvement
ApoE4 non-carriers, 3 mg, 10 mg and 30 mg/d q.d. for 14 days, acetic acid, sodium salt
  cognitive improvement (ADAS-cog11 score change): greater cognitive improvement
